Assay results taken from ChEMBL document CHEMBL1201862, “PubChem BioAssay data set” (2004).
Calls of active or inactive are those of the source.

Experiments:
[1] = Luminescence Cell-Based Dose Response HTS to Identify Inhibitors of Luciferase Translation or Activity in H4-C Neuroglioblastoma Cells. [Related pubchem assays: 1813 (Primary HTS), 1827 (Project Summary)]; assay type: functional
[2] = Luminescence Cell-Based Dose Response HTS to Identify Activators of Luciferase Translation or Activity in H4-C Neuroglioblastoma Cells. [Related pubchem assays: 1829 (Project Summary), 1814 (Primary HTS)]; assay type: functional
[3] = luciferase reporter signal suppression in cells – H4 neuroglioma cells, luminescence, dose response (AID 1990); assay type: functional, cell-based
[4] = Luminescence Cell-Based Dose Retest to Confirm Activators of 5'UTR Stem-Loop Driven Alpha-Synuclein mRNA Translation in H4 Neuroglioblastoma Cells. [Related pubchem assays (depositor defined):AID1813, AID1829]; assay type: functional
[5] = Luminescence Cell-Based Dose Response HTS to Identify Activators of 5'UTR Stem-Loop Driven Prion Protein mRNA Translation in H4-C Neuroglioblastoma Cells. [Related pubchem assays: 1829 (Project Summary), 1814 (Primary HTS)]; assay type: functional
[6] = Luminescence Cell-Based Dose HTS Response to Identify Inhibitors of 5'UTR Stem-Loop Driven Prion Protein mRNA Translation in H4-C Neuroglioblastoma Cells. [Related pubchem assays (depositor defined):AID1814, AID1827]; assay type: functional
[7] = alpha-synuclein stem-loop luciferase translation blockers – H4 neuroglioma cells, luminescence, confirmation (AID 1988); assay type: functional, cell-based
[8] = Luminescence Cell-Based Dose Confirmation HTS to Identify Inhibitors of 5'UTR Stem-Loop Driven Alpha-Synuclein mRNA Translation in H4 Neuroglioblastoma Cells. [Related pubchem assays: 1827 (Project Summary), 1813 (Primary HTS)]; assay type: functional
[9] = HEK-293T viability loss after treatment – luminescence, T-cell screen hits, cytotoxicity control for TCR NF-kB inhibitor project, dose response (AID 489026); assay type: functional, cell-based;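 note: cells exposed to compound about 14 hours before the viability readout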
[10] = target: Intestinal-type alkaline phosphatase (Mus musculus, UniProt P24822); assay: PubChem AID 488875; assay type: functional
[11] = target: T1, Intestinal-type alkaline phosphatase (Homo sapiens, UniProt P09923); assay: human intestinal alkaline phosphatase activators, dose response, biochemical, luminescence, uHTS hits (AID 463120); assay type: functional
[12] = target: Alkaline phosphatase, placental type (Homo sapiens, UniProt P05187); assay: human placental alkaline phosphatase inhibition – biochemical, luminescence, confirmation (AID 1512); assay type: functional
[13] = target: T1, Intestinal-type alkaline phosphatase; assay: activation of human intestinal alkaline phosphatase – biochemical, luminescent, uHTS hits, set 2, dose response (AID 488817); assay type: functional;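 note: potency of activators that raise enzyme activity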
[14] = target: T2, Runt-related transcription factor 1/Core-binding factor subunit beta (Homo sapiens, UniProt Q01196+Q13951); assay: disruptors of Runt domain/CBFb-SMMHC interaction – biochemical, FRET, Cerulean-Runt, Venus-CBFb-SMMHC, uHTS, […] (AID 1434); assay type: protein assay
[15] = target: T2, Runt-related transcription factor 1/Core-binding factor subunit beta; assay: Runt domain/CBFb-SMMHC interaction disruptors – biochemical, TR-FRET (AID 1438); assay type: protein assay
[16] = target: T3, G-protein coupled receptor 35 (Homo sapiens, UniProt Q9HC97); assay: SAR analysis of Agonists of the GPR35 Receptor using an Image-Based Assay - Set 4. [Related pubchem assays (depositor defined):AID2013, AID2026]; assay type: functional
Cannabinoid receptor 1 [17] = target: T4, Cannabinoid receptor 1 (Homo sapiens, UniProt P21554); assay: SAR analysis of agonists of the Cannabinoid Receptor 1 using an Image-Based Assay - Set 4. [Related pubchem assays (depositor defined):AID2013, AID2026]; assay type: functional
[18] = target: T3, G-protein coupled receptor 35; assay: SAR analysis of Antagonists of the GPR35 Receptor using an Image-Based Assay - Set 6. [Related pubchem assays (depositor defined):AID2013, AID2026]; assay type: functional
Cannabinoid receptor 1 [19] = target: T4, Cannabinoid receptor 1; assay: SAR analysis of antagonists of the Cannabinoid Receptor 1 using an Image-Based Assay - Set 4. [Related pubchem assays (depositor defined):AID2013, AID2026]; assay type: functional
[20] = target: G-protein coupled receptor 55 (Homo sapiens, UniProt Q9Y2T6); assay: SAR Analysis of Selective Antagonists of GPR55 using an Image-Based Assay - Set 4. [Related pubchem assays (depositor defined):AID2013, AID2026]; assay type: functional;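 note: antagonism of response to 5 µM lysophosphatidylinositol agonist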
Cannabinoid receptor 2 [21] = target: T5, Cannabinoid receptor 2 (Homo sapiens, UniProt P34972); assay: SAR analysis of antagonists of the Cannabinoid Receptor 2 using an Image-Based Assay - Set 3. [Related pubchem assays (depositor defined):AID2013, AID2026]; assay type: functional
Cannabinoid receptor 2 [22] = target: T5, Cannabinoid receptor 2; assay: SAR analysis of agonists of the Cannabinoid Receptor 2 using an Image-Based Assay - Set 3. [Related pubchem assays (depositor defined):AID2013, AID2026]; assay type: functional
Bcl-2-related protein A1 = target: T6, Bcl-2-related protein A1 (Mus musculus, UniProt Q07440); assay type: functional;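 note: confirmatory dose–response counterscreen on Bfl-1, used to check hits from a UBC13 polyubiquitin inhibitor campaign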
T6 sequence (Q07440 whole entry): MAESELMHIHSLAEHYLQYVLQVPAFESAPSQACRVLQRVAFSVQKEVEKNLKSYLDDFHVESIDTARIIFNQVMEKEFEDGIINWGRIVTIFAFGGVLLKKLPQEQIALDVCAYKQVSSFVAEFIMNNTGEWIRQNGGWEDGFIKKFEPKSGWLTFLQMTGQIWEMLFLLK

[23] = target: T7, Ubiquitin-conjugating enzyme E2 N (Homo sapiens, UniProt P61088); assay type: functional
T7 sequence (P61088 whole entry): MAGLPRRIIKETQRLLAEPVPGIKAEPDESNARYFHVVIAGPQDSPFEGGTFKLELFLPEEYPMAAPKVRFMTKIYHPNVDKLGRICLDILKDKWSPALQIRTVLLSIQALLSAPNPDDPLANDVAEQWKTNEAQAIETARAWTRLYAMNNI

[24] = target: T7, Ubiquitin-conjugating enzyme E2 N; assay type: functional; remark: listed apart in the source

T1 sequence (P09923 whole entry): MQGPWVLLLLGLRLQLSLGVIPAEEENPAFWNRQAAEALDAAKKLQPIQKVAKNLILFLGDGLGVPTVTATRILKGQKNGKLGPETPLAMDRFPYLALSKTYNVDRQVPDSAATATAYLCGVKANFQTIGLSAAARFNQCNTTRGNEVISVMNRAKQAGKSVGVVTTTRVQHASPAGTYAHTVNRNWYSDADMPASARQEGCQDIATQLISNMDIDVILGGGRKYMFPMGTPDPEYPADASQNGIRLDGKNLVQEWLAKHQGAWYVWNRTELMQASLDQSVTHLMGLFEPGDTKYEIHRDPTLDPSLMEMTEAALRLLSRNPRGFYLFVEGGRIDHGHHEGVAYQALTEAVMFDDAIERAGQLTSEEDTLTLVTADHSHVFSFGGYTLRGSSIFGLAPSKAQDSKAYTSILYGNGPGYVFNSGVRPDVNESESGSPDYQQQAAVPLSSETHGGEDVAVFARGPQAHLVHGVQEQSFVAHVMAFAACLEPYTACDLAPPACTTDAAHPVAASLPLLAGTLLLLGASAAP
T4 sequence (P21554 whole entry): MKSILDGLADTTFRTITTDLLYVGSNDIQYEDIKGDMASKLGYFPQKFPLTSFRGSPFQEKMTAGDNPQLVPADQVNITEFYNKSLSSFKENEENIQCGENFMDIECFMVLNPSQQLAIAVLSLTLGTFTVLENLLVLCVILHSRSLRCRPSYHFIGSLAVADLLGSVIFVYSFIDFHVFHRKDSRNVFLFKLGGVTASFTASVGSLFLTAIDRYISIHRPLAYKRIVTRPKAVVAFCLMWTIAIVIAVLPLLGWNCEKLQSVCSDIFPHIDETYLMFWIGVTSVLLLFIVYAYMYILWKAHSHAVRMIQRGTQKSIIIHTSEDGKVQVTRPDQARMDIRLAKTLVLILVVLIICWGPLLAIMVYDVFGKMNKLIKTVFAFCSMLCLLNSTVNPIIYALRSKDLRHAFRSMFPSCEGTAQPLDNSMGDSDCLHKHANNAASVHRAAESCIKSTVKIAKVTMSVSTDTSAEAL
T5 sequence (P34972 whole entry): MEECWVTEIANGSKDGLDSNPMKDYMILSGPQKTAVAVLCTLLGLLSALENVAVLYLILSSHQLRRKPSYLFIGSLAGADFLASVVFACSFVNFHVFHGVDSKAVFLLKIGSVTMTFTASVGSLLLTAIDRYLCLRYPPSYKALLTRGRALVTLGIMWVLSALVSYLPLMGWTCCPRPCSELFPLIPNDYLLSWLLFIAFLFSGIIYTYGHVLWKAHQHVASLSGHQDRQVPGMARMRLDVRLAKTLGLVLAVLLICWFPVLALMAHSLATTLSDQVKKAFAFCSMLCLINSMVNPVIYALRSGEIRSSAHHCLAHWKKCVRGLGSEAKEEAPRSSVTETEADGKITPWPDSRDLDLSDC
T2 sequence (Q01196 whole entry, the tested form may be a part): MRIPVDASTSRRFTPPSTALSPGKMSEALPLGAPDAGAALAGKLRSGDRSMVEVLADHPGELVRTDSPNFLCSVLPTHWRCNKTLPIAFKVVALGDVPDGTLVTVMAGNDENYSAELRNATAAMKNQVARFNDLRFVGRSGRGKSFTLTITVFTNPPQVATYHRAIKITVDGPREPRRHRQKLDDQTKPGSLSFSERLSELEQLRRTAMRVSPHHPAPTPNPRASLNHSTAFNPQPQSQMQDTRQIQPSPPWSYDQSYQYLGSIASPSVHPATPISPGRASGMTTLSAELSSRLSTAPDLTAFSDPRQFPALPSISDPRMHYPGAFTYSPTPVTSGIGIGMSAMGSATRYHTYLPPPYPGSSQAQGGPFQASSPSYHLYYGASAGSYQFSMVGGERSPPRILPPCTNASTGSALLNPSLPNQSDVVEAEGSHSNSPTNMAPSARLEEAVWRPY
T2 sequence (Q13951 whole entry, the tested form may be a part): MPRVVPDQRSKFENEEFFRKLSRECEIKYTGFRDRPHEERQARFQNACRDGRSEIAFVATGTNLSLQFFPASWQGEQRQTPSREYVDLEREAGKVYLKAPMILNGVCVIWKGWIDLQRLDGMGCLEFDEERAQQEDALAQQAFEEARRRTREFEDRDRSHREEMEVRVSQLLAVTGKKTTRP
T3 sequence (Q9HC97 whole entry): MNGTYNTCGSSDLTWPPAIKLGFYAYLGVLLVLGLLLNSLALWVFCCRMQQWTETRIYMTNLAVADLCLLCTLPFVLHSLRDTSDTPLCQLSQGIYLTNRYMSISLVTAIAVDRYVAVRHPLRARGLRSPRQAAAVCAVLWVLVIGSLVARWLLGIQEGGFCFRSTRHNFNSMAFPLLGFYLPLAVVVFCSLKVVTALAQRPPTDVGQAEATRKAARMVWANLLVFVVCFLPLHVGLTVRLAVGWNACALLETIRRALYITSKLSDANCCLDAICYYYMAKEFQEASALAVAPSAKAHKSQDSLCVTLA
G-protein coupled receptor 55, sequence (Q9Y2T6 whole entry): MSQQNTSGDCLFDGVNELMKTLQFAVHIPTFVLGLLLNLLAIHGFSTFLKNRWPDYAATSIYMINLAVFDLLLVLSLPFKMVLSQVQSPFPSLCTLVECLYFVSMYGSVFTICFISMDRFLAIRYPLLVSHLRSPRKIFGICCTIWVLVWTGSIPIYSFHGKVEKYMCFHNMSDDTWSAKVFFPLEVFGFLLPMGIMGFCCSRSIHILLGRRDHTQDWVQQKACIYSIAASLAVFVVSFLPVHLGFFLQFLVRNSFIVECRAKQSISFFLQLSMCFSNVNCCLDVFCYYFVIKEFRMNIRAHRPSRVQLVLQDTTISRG
Intestinal-type alkaline phosphatase (Mus musculus, UniProt P24822), sequence (P24822 whole entry): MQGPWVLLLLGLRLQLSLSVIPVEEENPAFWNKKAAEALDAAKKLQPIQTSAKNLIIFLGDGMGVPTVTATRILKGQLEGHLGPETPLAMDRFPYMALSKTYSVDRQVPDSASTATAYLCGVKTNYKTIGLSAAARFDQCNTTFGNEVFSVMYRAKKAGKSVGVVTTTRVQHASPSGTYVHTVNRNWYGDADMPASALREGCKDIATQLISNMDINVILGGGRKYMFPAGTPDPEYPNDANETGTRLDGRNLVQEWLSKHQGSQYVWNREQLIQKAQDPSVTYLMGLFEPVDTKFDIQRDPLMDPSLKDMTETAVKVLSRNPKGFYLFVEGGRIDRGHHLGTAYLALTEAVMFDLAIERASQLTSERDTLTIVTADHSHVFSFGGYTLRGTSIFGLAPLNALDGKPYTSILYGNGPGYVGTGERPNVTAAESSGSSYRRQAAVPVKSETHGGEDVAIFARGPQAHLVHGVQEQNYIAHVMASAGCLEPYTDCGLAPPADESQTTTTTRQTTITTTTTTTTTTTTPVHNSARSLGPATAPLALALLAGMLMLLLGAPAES
Alkaline phosphatase, placental type, sequence (P05187 whole entry): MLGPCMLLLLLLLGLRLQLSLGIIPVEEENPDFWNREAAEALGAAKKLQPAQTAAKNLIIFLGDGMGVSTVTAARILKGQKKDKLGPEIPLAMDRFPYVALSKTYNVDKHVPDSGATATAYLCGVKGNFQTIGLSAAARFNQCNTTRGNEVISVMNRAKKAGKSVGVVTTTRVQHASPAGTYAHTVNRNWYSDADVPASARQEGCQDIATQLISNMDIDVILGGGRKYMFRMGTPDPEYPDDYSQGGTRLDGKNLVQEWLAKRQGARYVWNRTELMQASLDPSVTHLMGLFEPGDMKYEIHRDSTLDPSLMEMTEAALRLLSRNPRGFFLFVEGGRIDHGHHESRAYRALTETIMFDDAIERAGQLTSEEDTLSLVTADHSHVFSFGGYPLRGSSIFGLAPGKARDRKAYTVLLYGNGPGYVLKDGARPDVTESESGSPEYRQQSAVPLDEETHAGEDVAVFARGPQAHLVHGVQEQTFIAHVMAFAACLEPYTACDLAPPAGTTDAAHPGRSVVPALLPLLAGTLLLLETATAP

COc1ccc(/C=C/C(=O)c2cc(F)ccc2OC(=O)c2ccccc2)cc1OC
EC50 [1]: 0.697 µM (active)
EC50 [2]: 0.697 µM (inconclusive)
EC50 [3]: 12.8 µM (active)
EC50 [4]: 0.666 µM (inconclusive)
EC50 [5]: 0.699 µM (inconclusive)
EC50 [6]: 0.699 µM (active)
EC50 [7]: < 0.195 µM (active)
EC50 [8]: 0.666 µM (active)
IC50 [9]: > 80 µM (inactive)

Cc1cc(C)cc(OCC(=O)NNC(=O)c2cc(C)n[nH]2)c1
EC50 [10]: > 100 µM (inactive)
EC50 [11]: 12.7 µM (active)
IC50 [12]: > 100 µM (inactive)
EC50 [13]: 16.1 µM (active)

Cc1cc2n(n1)C(c1ccc(N(C)C)cc1)Nc1ccccc1-2 (stereo not given)
IC50 [14]: 48.3 µM (active)
IC50 [15]: > 100 µM (inactive)

O=C(N1CCC(n2nc(-c3ccccc3)oc2=O)CC1)C1(c2ccccc2)CCCC1
EC50 [16]: > 32 µM (inactive)
EC50 (Cannabinoid receptor 1 [17]): > 32 µM (inactive)
IC50 [18]: > 32 µM (inactive)
IC50 (Cannabinoid receptor 1 [19]): 1.98 µM (active)
IC50 [20]: 2.7 µM (active)
IC50 (Cannabinoid receptor 2 [21]): 14 µM (inactive)
EC50 (Cannabinoid receptor 2 [22]): > 32 µM (inactive)

C/C(=N\NC(=O)CSCc1ccc([N+](=O)[O-])cc1)c1ccccc1
IC50 (Bcl-2-related protein A1): > 20 µM (inactive)
IC50 [23]: 6.86 µM (active)
IC50 [24]: 4.9 µM (active)
